From patent US4551472A, “Unsymmetrical bis-carbamate compounds” (priority 1984, dated 1985)

Tests used:
[1] = tested on: root-knot nematode, Meloidogyne incognita var. acrita; assay: Nematocide Test; note: key: 1: severe galling, equal to untreated plants; 2: moderate galling; 3: light galling; 4: very light galling; 5: no galling, perfect control; type: in vivo; conditions: 3.33 m.g. per jar; cucumber, approximately 3 weeks
Protocol: The test organism used was the infective migratory larvae of the root-knot nematode, Meloidogyne incognita var. acrita, reared in the greenhouse on roots of cucumber plants. Infected plants were removed from the culture, and the roots are chopped very finely. A small amount of this inoculum was added to a pint jar containing approximately 180 cc. of soil. The jars were capped and incubated for one week at room temperature. During this period eggs of the nematode were hatched, and the larval forms migrated into the soil.
Ten ml. of the test formulation were added to each of the two jars for each dosage tested. Following the addition of chemical, the jars were capped, and the contents thoroughly mixed on a ball mill for 5 minutes.
The test compounds were formulated by a standard procedure of solution in acetone addition of an emulsifier, and dilution with water. Primary screening tests were conducted at 3.33 m.g. of the test compound per jar.
The jars were left capped at room temperature for a period of 48 hours, and the contents then transferred to 3 inch pots. Subsequently, the pots were seeded to cucumber as an indicator crop and placed in the greenhouse where they were cared for in the normal fashion for approximately 3 weeks.
The cucumber plants were then taken from the pots, the soil removed from the roots; and the amount of galling visually rated.
In the test for activity against nematodes (nem) activity was rated as follows: […]

[2] = tested on: Soy; assay: Phytotoxicity Test, soy; conditions: 2500 ppm spray, ten days
[3] = tested on: Bean; assay: Phytotoxicity Test, bean; conditions: 2500 ppm spray, ten days
Protocol: (§1) Experiments were also conducted to determine the phytotoxicity of representative compounds with respect to healthy fresh plants. […] The test plants were sprayed in accordance with the procedure described above for the Mite Foliage Spray Test so as to deliver approximately 100 milliliters of test solution to the leaves of each plant tested. The sprayed plants and controls were set aside for approximately one hour to allow the foliage to dry and were then placed in the greenhouse. After ten days the plants were visually inspected to determine the extent of foliage injury. A rating of 1 indicates no perceptible injury; 5 indicates the plant was dead and ratings of 2, 3 and 4 indicate intermediate degrees of injury based upon the number and extent to which leaves were injured.

[4] = tested on: Corn; assay: Phytotoxicity Test, corn; conditions: 2500 ppm spray, ten days
[5] = tested on: Tom; assay: Phytotoxicity Test, tomato; conditions: 2500 ppm spray, ten days
Protocol: as §1

[6] = tested on: Cotton; assay: Phytotoxicity Test, cotton; conditions: 2500 ppm spray, ten days
[7] = Mammalian Toxicity, peroral toxicity to rat; type: in vivo; conditions: in vivo, po, read-out: A.O. Rat LD50
Protocol: Certain compounds were also evaluated to determine their peroral toxicity to mammals by conventional methods. The representative animal selected for this experiment was the rat.

Row | Compound | Biological Activity: Nem (nematode, galling rating) [1] | Phytotoxicity: Soy [2] | Phytotoxicity: Bean [3] | Phytotoxicity: Corn [4] | Phytotoxicity: Tom [5] | Phytotoxicity: Cotton [6] | LD50 [7] [mg/kg]
1 | CCC(C)c1cc([N+](=O)[O-])cc([N+](=O)[O-])c1OC(=O)N(C)SN(C)C(=O)ON=C(C)SC (stereo not drawn) [XIX, N-[1-Methylthioacetaldehyde O-(N-methylcarbamoyl)oxime]N-[2,4-dinitro-6-sec-butylphenyl-(N-methylcarbamoyloxy)]sulfide] | 1 | 2 | 1 | 2 | 2 | 2 | –
2 | CSC(C)=NOC(=O)N(C)SN(C)C(=O)ON=C1CSCCS1 [Example II] | 5 | 1 | 1 | 1 | 1 | 1 | 190
3 | CSC(C)=NOC(=O)N(C)SN(C)C(=O)Oc1ccc(Oc2ccccc2)cc1 [XXXIV] | – | 1 | 1 | 1 | 1 | 1 | > 640
4 | CN(SN(C)C(=O)Oc1cccc2ccccc12)C(=O)ON=C1CSCCS1 [XXII, N-[2-O-(N-methylcarbamoyl)oximino-1,4-dithiane]N-[1-naphthyl-(N-methylcarbamoyloxy)]sulfide] | 4 | 2 | 1 | 1 | 1 | 1 | 453
5 | CSC(C)=NOC(=O)N(C)SN(C)C(=O)ON=C(C)C(=O)c1ccccc1 [XLI] | 1 | 1 | 1 | 1 | 1 | 1 | –
6 | CSC(C)=NOC(=O)N(C)SN(C)C(=O)Oc1ccc(-c2ccccc2)cc1 [XXXII] | 4 | 1 | 2 | 1 | 1 | 2 | –
7 | C#CCOC(=O)N(C)SN(C)C(=O)Oc1cccc2ccccc12 [XXVI] | 4 | 2 | 1 | 1 | 1 | 1 | –
8 | C#CCOC(=O)N(C)SN(C)C(=O)ON=C1SC(C)(C)C(=O)N1C [IV, N-[N-methyl-N-propargyloxycarbonylamino]N-[3,5,5-trimethylthiazolidin-4-one-2 O-(N-methylcarbamoyl)oxime]sulfide] | 1 | 2 | 1 | 1 | 2 | 2 | –
9 | CSC(C)=NOC(=O)N(C)SN(C)C(=O)Oc1ccccc1C1OCCO1 [XXXVII] | 4 | 2 | 2 | 1 | 1 | 2 | –
10 | CSC(C)=NOC(=O)N(C)SN(C)C(=O)Oc1cccc(N(C)C)c1 [XX, N-[1-Methylthioacetaldehyde O-(N-methylcarbamoyl)oxime]N-[3-(N',N'-dimethylamino)phenyl-(N-methylcarbamoyloxy)]sulfide] | 4 | 2 | 1 | 1 | 1 | 2 | –
11 | C=CCc1ccc(OC(=O)N(C)SN(C)C(=O)ON=C(C)SC)c(OC)c1 [XXXIII] | 5 | 1 | 1 | 1 | 1 | 3 | –
12 | CSC(C)=NOC(=O)N(C)SN(C)C(=O)Oc1cccc(Oc2ccccc2)c1 [XXXV] | – | 1 | 1 | 1 | 1 | 1 | –
13 | CC(C)c1ccc(OC(=O)N(C)SN(C)C(=O)ON=C2CSCCS2)cc1 [XXV, N-[2-O-(N-methylcarbamoyl)oximino-1,4-dithiane]N-[4-isopropyl-(N-methylcarbamoyloxy)benzene]sulfide] | – | 1 | 1 | 1 | 1 | 3 | –
14 | CSC(C)=NOC(=O)N(C)SN(C)C(=O)Oc1ccc(NC=O)c(C)c1 [XXI, N-[1-Methylthioacetaldehyde O-(N-methylcarbamoyl)oxime]N-[4-formylamino-3-methylphenyl-(N-methylcarbamoyloxy)]sulfide] | 4 | 1 | 1 | 1 | 1 | 1 | –
15 | C#CCOC(=O)N(C)SN(C)C(=O)Oc1ccc(C)c(C)c1 [XXVII] | 5 | 2 | 1 | 1 | 1 | 2 | –
16 | CSC(C)=NOC(=O)N(C)SN(C)C(=O)Oc1ccc(C(C)(C)C)cc1Cl [XXIX] | 5 | 1 | 1 | 1 | 1 | 1 | –
17 | CSC(C)=NOC(=O)N(C)SN(C)C(=O)ON=C1SCSCS1 [XL] | 5 | 1 | 1 | 1 | 1 | 1 | –
18 | CSC(C)=NOC(=O)N(C)SN(C)C(=O)Oc1ccccc1OC(C)C [XXXVIII] | – | 2 | 1 | 1 | 1 | 1 | 63.5
19 | CCCCCCCCCCCCc1ccc(OC(=O)N(C)SN(C)C(=O)ON=C(C)SC)cc1 [XXX] | 4 | 1 | 1 | 1 | 1 | 2 | –
20 | CSC(C)=NOC(=O)N(C)SN(C)C(=O)Oc1cccc(C(C)C)c1 [XXVIII] | – | 2 | 1 | 1 | 1 | 2 | 40
21 | CSC(C)=NOC(=O)N(C)SN(C)C(=O)ON=C(SC)C(=O)N(C)C [XI, N-[1-Methylthioacetaldehyde O-(N-methylcarbamoyl)oxime]N-[1-methylthio-N', N'-dimethylcarbamoylformaldehyde O-(N-methylcarbamoyl)oxime]sulfide] | – | 1 | 1 | 1 | 1 | 2 | 14.1
